Test results reported in patent US6699676B1, “Uses of ouabain and ouabain-like molecules in apoptosis related pathologies” (Corporation du Centre de Recherche du Centre, Hospitalier …, priority 1999, dated 2004).

Columns and labels:
VSMC-E1A = assay: Intracellular Na+ and K+ content in VSMC-E1A; type: cell-based, rat; details: for Intracellular cations K^+i / Intracellular cations Na^+i: ouabain-treated VSMC-E1A, 1 mM, 6 hours
Description: FIG. 1. Kinetics of modulation of intracellular Na^+ (1, 2) and K^+ (3, 4) content by ouabain in VSMC-E1A (1, 3) and Jurkat cells (2, 4). Cells were preincubated for 24 hours in the presence of 10% calf serum in control medium consisting of 91 mM NaCl, 5 mM KCl, 0.9 mM NaH2PO4, 44 mM NaHCO3, 1.8 mM CaCl2, 0.8 mM MgCl2, 33 mM HEPES and 5 mM D-glucose (pH 7.4) with 2 μCi/ml of ^22Na or 0.5 μCi/ml ^86Rb, and 1 mM ouabain was added at the time interval indicated by the arrow. At specific time-points, intracellular Na^+ and K content + was measured as described in Experimental Procedures. Mean values±S.E. obtained in experiments performed in quadruplicate (VSMC-E1A) or triplicate (Jurkat cells) are given.
To estimate chromatin cleavage, cells were incubated for 1 hr in the presence of 10% calf serum (CS) in the control solution (DMEM, [Na^+]=137 mM; [K^+]=5 mM—line 1) or under equimolar substitution of NaCl by KCl ([Na^+]=14 mM; [K^+]=128 mM—line 2) with or without 1 mM ouabain and then for an additional 6 hours in the same media with or without CS. Intracellular Na^+ and K^+ content was measured as steady-state distribution of isotopes after 24 hours preincubation of cells in control Na^+-enriched solution containing 0.5 μCi/ml ^86Rb or 2 μCilml ^22Na, and additional 6 hours incubation in Na^+—(line 1) or K^+—(line 2) enriched medium, containing 10% CS and isotopes with the same specific activity with or without 1 mM ouabain. For more details see Experimental Procedures. Mean values±S.E. obtained in 3 experiments performed in triplicate (ion content) or quadruplicate (chromatin cleavage) are given. ★p<0.001 compared to ouabain-untreated cells.
Intracellular Na^+ and K^+ content. The intracellular content of exchangeable Na^+ and K^+ was measured as steady-state distribution of extra- and intracellular ^22Na and ^86Rb, as described previously in detail (22). Briefly, to establish the steady-state distribution of isotopes, VSMC growing in 12× (^22Na) or 24× (^86Rb) well plates or ˜10^6 Jurkat cells in suspension were preincubated for 24 hours in DMEM containing 10% calf serum and 0.5 μCi/ml ^86RbCl or 2 μCi/ml ^22NaCl and then treated in media with compositions shown in FIG. 1 and Tables 3 and 4 and with the same specific radioactivity. At the end of incubation, the VSMC were transferred on ice, washed 4 times with 2 ml of ice-cold medium W, containing 100 mM MgCl2 and 10 mM HEPES-tris buffer (pH 7.4), and lysed with SDS/EDTA mixture. One ml of Jurkat cell suspension was applied on a Whatman type C filter with the cells being washed with 3×5 ml aliquots of ice-cold medium W under negative pressure of 20-30 mm Hg. Radioactivity of the incubation medium and cell lysate was measured with a liquid scintillation analyzer and intracellular cation content was determined as A/am, where A was the radioactivity of the samples (cpm), a was the specific radioactivity of Na^+ and K^+(^86Rb) in the medium (cpm/nmol), and m was the protein content determined by Lowry methods.

VSMC-MYC = assay: Chromatin cleavage assay in VSMC-MYC; type: cell-based, rat; details: 1 mM ouabain, 1 hr preincubation, 6 hours
Description: Cells were incubated in K^+-containing medium consisting of 91 mM NaCl, 5 mM KCl, 0.9 mM NaH2PO4, 44 mM NaHCO3, 1.8 mM CaCl2, 0.8 mM MgCl2, 33 mM HEPES and 5 mM D-glucose (pH 7.4) (lines 1 and 2) or in K^+-depleted medium (equimolar substitution of KCl by NaCl, line 3) with or without 10% calf serum (CS) and 1 mM ouabain as indicated. In experiments with VSMC-MYC and VSMC-E1A, cells were preincubated for 1 hr with ouabain or with K^+-depleted medium in the presence of CS and then subjected to treatment with serum-free media. After 24 hours (VSMC) or 6 hours (VSMC-MYC and VSMC-E1A), the content of chromatin fragments was measured as described in Experimental Procedures. […]
Chromatin cleavage assay. […] After 15 min, the cell lysate was transferred to Ependorf tubes, sedimented (12,000 rpm, 10 mm), and 1 ml of supernatant was transferred for the measurement of radioactivity (A1t). The remaining radioactivity from pellets and wells was extracted with 0.5 ml of 1% SDS/4 mM EDTA mixture, combined and counted (A2). Chromatin cleavage was quantified as the content of chromatin fragments normalized by total content of [^3H]-labeled DNA in accordance with the equation [1.5×(A1t−A1o)/(A2+A1t−1.5A1o)]×100% where A1o is the value of A1t before induction of apoptosis. […]

Compound: C[C@@H]1O[C@@H](O[C@H]2C[C@@H](O)[C@]3(CO)[C@H]4[C@H](O)C[C@]5(C)[C@@H](C6=CC(=O)OC6)CC[C@]5(O)[C@@H]4CC[C@]3(O)C2)[C@H](O)[C@H](O)[C@H]1O [Ouabain, 1β,3β,5,11α,14,19-hexahydroxycard 20 [22]-enolide 3-[6-deoxy-α-L-mannopyrano-sidel]]
- intracellular Na^+ content (VSMC-E1A; VSMC-E1A, after 2 hours of 1 mM ouabain (from 38±8)): 283±30 nmol/mg proteins
- K^+i content (VSMC-E1A; VSMC-E1A, after 2 hours of 1 mM ouabain (from 405±41)): 131±19 nmol/mg proteins
- Na^+i and K^+i content on prolongation of incubation (VSMC-E1A; VSMC-E1A, ouabain for up to 5 hours versus 2 hours): did not significantly modify
- Intracellular cations K^+i (VSMC-E1A; medium [Na+]o=14, [K+]o=128 mM): 293 nmol/mg prot
- Intracellular cations Na^+i (VSMC-E1A; medium [Na+]o=14, [K+]o=128 mM): 51 nmol/mg prot
- Intracellular cations K^+i (VSMC-E1A; medium [Na+]o=137, [K+]o=5 mM): 99 nmol/mg prot
- Intracellular cations Na^+i (VSMC-E1A; medium [Na+]o=137, [K+]o=5 mM): 312 nmol/mg prot
- Chromatin fragments (%) (VSMC-MYC; 10% CS): 1.4 ± 0.3%
- Chromatin fragments (%) (VSMC-MYC; CS-free): 3.1 ± 0.4 %
